Patent publication US9822112B2, “Heteroarylene-bridged benzodiazepine dimers, conjugates thereof, and methods of making and using” (priority 2015, dated 2017)

How the values were obtained:
Assay in all cases: Cytotoxic activity of dimers (ATP luminescence or MTS cell proliferation assay)
Type in all cases: cell-based
[1] = system: N87 gastric cancer cell line; conditions: N87 cells; free dimer; 72 h incubation
Description: (§1) The cytotoxic activity of dimers of this invention can be tested against various cancer cell lines, such as H226 lung cancer, DMS 79 lung cancer, H187 lung cancer, N87 gastric cancer, 786-O renal cancer, and/or OVCAR3 ovarian cancer cell lines. The ability of dimers to inhibit cell proliferation can be measured by either an ATP luminescence assay or an MTS cell proliferation assay.
(§2) This is a general procedure for an ATP luminescence assay: Cells are seeded at 1×10^3 cells/well in 96-well plates for 3 h for ATP CellTiterGlo™ assays, respectively. Serial dilutions (1:3) of compounds are added to the wells. Plates are allowed to incubate for 72 h. A CellTiterGlo™ cell viability kit from Promega is used to measure ATP content of cells treated with test compounds following manufacturer's instruction. A decrease in the ATP content is a measure of decrease in cellular viability. The EC50 value—the concentration at which an agent reduces cell viability by 50% of the maximum effect—can be calculated using PRISM™ software, version 5.0 (GraphPad Software, La Jolla, Calif., USA).
(§3) The MTS cell proliferation assay was performed as follows: CellTiter 96 Aqueous Non-Radioactive Cell proliferation Kit from Promega (Madison, Wis.) is used to determine the number of viable cells in cell proliferation assay. Tumor cells are plated at certain seeding densities in sterile 384-well black clear bottom Matrix plates at 40 μL per well and incubated overnight at 37° C. in 5% CO2 before assaying. On the next day, one set of cell plates (10 plates) is used to determine time zero cell density, and 3-(4,5-dimethylthiazol-2-yl)-5-(3-carboxymethoxyphenyl)-2-(4-sulfophenyl)-2H-tetrazolium is added at 4 μL/well into 10 plates followed by incubation at 37° C. in 5% CO2 for three hours. This tetrazolium reagent is bioreduced by […] to form a formazan product which is soluble in aqueous solution. Absorbance at 490 nm is measured on an Envision reader (Perkin Elmer, Boston, Mass.). On the same day, compounds are added into remaining cell plates (T72 plates) and incubated at 37° C. in 5% CO2. After 72 hours, 4 μL MTS reagents are then added into those cell plates. The plates are further incubated at 37° C. in 5% CO2 for three hours and the absorbance values at A490 were measured on an Envision reader.

[2] = system: H187 lung cancer cell line; conditions: Homo sapiens, NCI-H187; H187 cells; free dimer; 72 h incubation
Description: as §1, §2, §3

[3] = system: DMS 79 lung cancer cell line; conditions: Homo sapiens; DMS 79 cells; free dimer; 72 h incubation
Description: as §1, §2, §3

Row | Compound | IC50 [1] | IC50 [2] | IC50 [3]
1 | COc1cc2c(cc1OCc1cccc(COc3cc4c(cc3OC)C(=O)N3Cc5cccnc5C[C@@H]3C=N4)n1)N=C[C@@H]1Cc3ccccc3CN1C2=O [Dimer 100] | 0.1 nM | – | –
2 | COc1cc2c(cc1OCc1cccc(COc3cc4c(cc3OC)C(=O)N3Cc5ccccc5C[C@H]3C=N4)n1)N=C[C@@H]1Cc3ccccc3CN1C2=O [IIa-01] | 0.02 nM | 0.001 nM | 0.001 nM
3 | COc1cc2c(cc1OCc1cccc(COc3cc4c(cc3OC)C(=O)N3Cc5cc(N)ccc5C[C@H]3C=N4)n1)N=C[C@@H]1Cc3ccccc3CN1C2=O [IIa-03] | 0.03 nM | 0.002 nM | 0.002 nM
4 | COc1cc2c(cc1OCc1cncc(COc3cc4c(cc3OC)C(=O)N3Cc5ccccc5C[C@H]3C=N4)c1)N=C[C@@H]1Cc3ccccc3CN1C2=O [IIa-06] | 0.14 nM | – | –
5 | COc1cc2c(cc1OCc1cc(COc3cc4c(cc3OC)C(=O)N3Cc5ccccc5C[C@H]3C=N4)c3ccccc3n1)N=C[C@@H]1Cc3ccccc3CN1C2=O [IIa-07] | 0.25 nM | – | –
6 | COc1cc2c(cc1OCc1cc(CO)cc(COc3cc4c(cc3OC)C(=O)N3Cc5ccccc5C[C@H]3C=N4)n1)N=C[C@@H]1Cc3ccccc3CN1C2=O [IIa-08] | 2.71 nM | – | –
7 | COc1cc2c(cc1OCc1cc(O)cc(COc3cc4c(cc3OC)C(=O)N3Cc5ccccc5C[C@H]3C=N4)n1)N=C[C@@H]1Cc3ccccc3CN1C2=O [IIa-11] | 4.92 nM | – | –
8 | COc1cc2c(cc1OCc1cc(Cl)cc(COc3cc4c(cc3OC)C(=O)N3Cc5ccccc5C[C@H]3C=N4)n1)N=C[C@@H]1Cc3ccccc3CN1C2=O [IIa-13] | 0.03 nM | – | –
9 | COc1cc2c(cc1OCc1cccc(COc3cc4c(cc3OC)C(=O)N3Cc5ccccc5C[C@H]3CN4)n1)NC[C@@H]1Cc3ccccc3CN1C2=O [IIa-15] | 2.88 nM | – | –
10 | COc1cc2c(cc1OCc1cccc(COc3cc4c(cc3OC)C(=O)N3Cc5cccnc5C[C@H]3C=N4)n1)N=C[C@@H]1Cc3ccccc3CN1C2=O [IIa-16] | 0.08 nM | – | –
